Assay results: patent US12064420B2, “Tie-2 activators targeting the Schlemm's canal” (EyePoint Pharmaceuticals, Inc., priority 2019, dated 2024)

Assays:
[1] = test system: ocular normotensive New Zealand White rabbits; assay: IOP in ocular normotensive rabbits, topical ocular or subcutaneous Compound 1; format: in vivo, rabbit
Procedure: To examine the effect of Compound 1 on IOP, Compound 1 was delivered either by subcutaneous injection, or by topical drops to ocular normotensive New Zealand White rabbits, and IOP was followed over time (FIGS. 3A-3C). For this study, 25 female New Zealand White rabbits were administered the sodium salt of Compound 1 for seven days QD or BID topically (30 μL drop) into both eyes, or twice daily subcutaneously, or vehicle twice daily topically into both eyes. Eye drops (4% Compound 1 or vehicle) were administered, with study staff masked to treatment. Five dose groups (5 rabbits per group) were tested: 1) vehicle control—15% HPβCD (+1% dextrose); 2) 1.5% (15 mg/mL) Compound 1 BID; 3) 4% (40 mg/mL) Compound 1 BID; 4) 4% (40 mg/mL) Compound 1 QD; and 5) 10 mg/kg (40 mg/mL) Compound 1 administered subcutaneously BID. IOP measurements were performed at baseline (prior to the start of dosing), and once daily on days 2-8. Prior to performing IOP measurements, 1 to 2 drops of a 0.5% proparacaine solution were applied to the eye as a topical anesthetic. IOP measurements were performed with a pneumotonometer 2 hours after morning dosing. The only exceptions were Day 8 measurements, which were performed 24 hours after the final dose. IOP data were analyzed using a mixed-design two-factor ANOVA, with time as the within-subjects factor and treatment as the between-subjects factor. IOP values for Day 7 and Day 8 were analyzed using one-way ANOVA. The change from baseline IOP on Day 7 and on Day 8 was calculated for each animal, and the resulting values were analyzed using one-way ANOVA. Area under the curve (AUC) was calculated for all morning IOP measurements throughout the study for each group; AUC values for the different groups were analyzed using one-way ANOVA. Where appropriate, post hoc testing was performed using Tukey's multiple comparisons tests. The level of significance was set at 0.05.

[2] = test system: C57 mice; assay: IOP in mice after once daily topical dosing (rebound tonometry); format: in vivo, mouse
Procedure: Mice were handled in accordance with acceptable animal care and use guidelines. C57BL/6 (C57) mice were bred/housed in clear cages and kept in housing rooms at 21° C. with a 12 h: 12 h light-dark cycle. Mice were examined at ages between 4 to 6 months old.
Each animal was randomly assigned to receive one masked treatment (eye drops, 4% Compound 1 or vehicle) in one eye and the other masked treatment in the contralateral eye once daily for three consecutive days. IOPs of both eyes were measured prior to eye drop administration using rebound tonometry between 11 am and 1 pm daily. After collecting IOP measurements on the third day, a final drop of Compound 1 or placebo was administered and TOP was measured again 2 and 4 hours later. For TOP measurements, mice were anesthetized with ketamine (60 mg/kg) and xylazine (6 mg/kg). TOP was immediately measured as the mice stopped moving, while drifting into light sleep, but before becoming anesthetized. Each TOP measurement that was recorded was a result of an average of six independent measurements per time point, giving a total of […] measurements from the same eye.

[3] = test system: New Zealand White rabbits; assay: Local tolerance in rabbits (slit lamp biomicroscopy, McDonald-Shadduck scoring); format: in vivo, rabbit; conditions: slit lamp biomicroscopy during the study
[4] = test system: ocular normotensive patients; assay: Phase 1B multiple-ascending dose study of Compound 1 ophthalmic solution, IOP; format: in vivo, human; conditions: for mean diurnal IOP reduction in the study eye, relative to the 15 mg/mL dose: ANCOVA model
Procedure: A multi-center, double-masked, randomized, placebo-controlled, multiple-ascending dose (MAD) cohort study in up to 48 ocular normotensive patients was conducted. For subjects in cohort 1, IOP was between 12 mmHg and 23 mmHg (inclusive) in both eyes on Day −1. Cohorts 2-4 were limited to subjects with pre-treatment IOP≥16 mmHg and ≤23 mmHg in at least one eye and ≤23 mmHg in both eyes at all timepoints on two separate days of IOP assessment during screening. Subjects who received additional carbonic-anhydrase inhibiting drops or cholinergic agonist drops were washed-out for at least 7 days prior to Day −1.
On Day −1 (day before first day of dosing), day 1, and day 7, for all cohorts, a baseline diurnal time point assessment of IOP in both eyes occurred at pre-dose, and 2, 4, and 8 hours post-dose relative to the planned dosing time the following day.
For cohort 1, on the morning of day 1 and day 2, all subjects were administered a single dose (one drop of approximately 30 μL of the dosing solution (Compound 1 or placebo) corresponding to the respective dose level) into the right eye only. If no AEs related to the investigational medicinal product (IMP) that represented a cause for concern were observed, then treatment was administered to both eyes once daily on the mornings of days 3 to 7. For all subsequent cohorts, dose administration was to both eyes on all 7 days (except cohort 4, in which treatment was administered in both eyes twice daily (AM and PM) on days 1-6 with a final single dose in both eyes on the morning of day 7).
Diurnal time point assessments of IOP were performed on day 1 and day 7 in both eyes at pre-dose, and 2, 4, and 8 hours post-dose in all cohorts.
The Compound 1 ophthalmic solution used for the trial was formulated as a sterile unpreserved solution of Compound 1 (0.5% w/v to 4.0% w/v, or 5 mg/mL to 40 mg/mL; as the sodium salt) in a vehicle containing 15% w/v HPβCD and 1% w/v mannitol and adjusted to a pH of 6.5-7.5 with 1N Hydrochloric Acid and/or 1N Sodium Hydroxide. The solution was filtered through sterile 0.22-μm filters, and 0.5 mL was aseptically filled into single-use sterile dose administration bottles suitable for ophthalmic delivery. Placebo was the same as the vehicle for the Compound 1 ophthalmic solution. Compound 1 was stored at United States Pharmacopeia (USP) controlled room temperature.

[5] = 10 mg/kg BID subcutaneous injection

For `COC(=O)N[C@@H](Cc1ccccc1)C(=O)N[C@@H](Cc1ccc(NS(=O)(=O)O)cc1)c1csc(-c2cccs2)n1` [Compound 1, 4-{(S)-2-[(S)-2-(Methoxycarbonylamino)-3-phenylpropanamido]-2-[2-(thiophen-2-yl)thiazol-4-yl]ethyl}phenylsulfamic acid], the “IOP-lowering effect on the last day of dosing (Day 7)” value [1, 5] was “the effect did not persist”, the “IOP-lowering effect relative to vehicle control on Days 3 and 4” value [1, 5] was “significant maximum IOP-lowering effect” and the “area under the curve for IOP values over 7 days versus vehicle, 1.5% TO BID or 10 mg/kg SC BID” value ([1]; 4% topical ocular QD or BID) was “statistically-significantly lower”. For the same compound, the “time to steady-state effect on IOP” value ([1]; daily topical ocular dosing of 4.0%) was “steady-state effect on IOP was observed by Day 3”, the “IOP reduction, topical ocular versus subcutaneous administration” value ([1]; rabbits) was “larger with topical ocular administration than with subcutaneous administration” and the “IOP-lowering effect versus vehicle control or 1.5% Compound 1 BID” value ([1]; topical ocular 4% QD and BID, 7 days) was “significantly larger IOP-lowering effect”. For the same compound, the “IOP on Day 8, 24 hours after the last dose” value ([1]; two high-dose (4%) topical ocular groups) was “significant reduction in IOP persisted on Day 8”, the “decrease of IOP” value ([2]; 4% topical QD, Day 3, 2 and 4 hours after treatment) was about 30% and the “change in IOP relative to Day 0, mean±standard error” value ([2]; 4% topical QD, just prior to dosing on Day 1) was −0.74±0.43 mmHg. For the same compound, the “change in IOP relative to Day 0, mean±standard error” value ([2]; 4% topical QD, just prior to dosing on Day 2) was −1.00±0.27 mmHg, the “change in IOP relative to Day 0, mean±standard error” value ([2]; 4% topical QD, prior to dosing on Day 3) was −1.6±0.3 mmHg and the “change in IOP compared to both Day 0 pretreatment and placebo treatment, mean±SE” value ([2]; Day 3, 2 hours after treatment) was −3.85±1.1 mmHg. For the same compound, the “change in IOP compared to only placebo-treated eyes, mean±SE” value ([2]; Day 3, 2 hours after treatment) was −5.66±1.0 mmHg, the “change in IOP compared to both Day 0 pretreatment and placebo treatment, mean±SE” value ([2]; Day 3, 4 hours after treatment) was −3.1±0.6 mmHg and the “change in IOP compared to only placebo-treated eyes, mean±SE” value ([2]; Day 3, 4 hours after treatment) was −4.87±0.75 mmHg. The “adverse effects on local tolerance” value [3] was “No adverse effects”, the “mean diurnal IOP reduction in the study eye, relative to the 15 mg/mL dose” value ([4]; 40 mg/mL BID topical) was −2.24 mmHg and the “mean diurnal IOP reduction in the study eye, relative to the 15 mg/mL dose” value ([4]; 40 mg/mL QD topical) was −1.93 mmHg. The “IOP on day 7 at the 0-hour, pre-dose time point” value ([4]; 40 mg/ml dose, 12 hours after the previous dose) was “persistent TOP reduction” and the “IOP change from baseline at 2, 4, and 8 hours post-dose” value ([4]; 40 mg/ml dose, days 1 and 7) was “significant TOP reductions from baseline”.
